Laboratory results as given in publication PMC4618636 (Pharmacology Research & Perspectives, 2015).
Like-named read-outs stand apart in the source and are kept apart here.

Legend:
CYP2B6 [1] = settings: for CYP2B6 Indmax: mean from two experiments; for CYP2B6 % PB: relative to positive control phenobarbital, equation 2
CYP1A2 [2] = experiment: CYP1A2 preinduction by omeprazole in upcyte hepatocytes; settings: daily 100 μmol/L omeprazole for 3 days
CYP3A4 [3] = settings: for CYP3A4 Indmax: mean from two experiments; for CYP3A4 % Rif: relative to positive control rifampicin, equation 2
CYP3A4 [4] = settings: in vivo induction value used for the RIS calibration; cited from earlier work
CYP1A2 [5] = molecular target: T1, CYP1A2 (Homo sapiens, UniProt P05177); experiment: CYP1A2 inhibition in upcyte hepatocytes over 24 h; assay type: in vitro ADME; settings: probe phenacetin (5 μmol/L), percentage inhibition, CYP1A2, APAP, 1 mmol/L ABT, Lab 2
T1 sequence (P05177 1-516): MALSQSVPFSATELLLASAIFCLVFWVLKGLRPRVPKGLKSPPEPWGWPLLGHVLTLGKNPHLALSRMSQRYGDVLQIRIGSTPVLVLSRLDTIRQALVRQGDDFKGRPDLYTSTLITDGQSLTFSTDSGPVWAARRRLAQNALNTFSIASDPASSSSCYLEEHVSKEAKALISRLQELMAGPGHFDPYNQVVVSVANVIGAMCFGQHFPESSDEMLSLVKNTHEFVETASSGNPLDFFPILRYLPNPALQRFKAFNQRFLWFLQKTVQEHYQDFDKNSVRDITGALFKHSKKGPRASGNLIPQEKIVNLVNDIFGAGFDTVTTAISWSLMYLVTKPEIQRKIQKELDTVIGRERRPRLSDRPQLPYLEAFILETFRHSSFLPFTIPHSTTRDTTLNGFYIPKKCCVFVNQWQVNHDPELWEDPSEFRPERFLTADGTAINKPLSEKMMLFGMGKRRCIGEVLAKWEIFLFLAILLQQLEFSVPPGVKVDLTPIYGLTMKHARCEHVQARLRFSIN

CYP2B6 [6] = molecular target: T2, CYP2B6 (Homo sapiens, UniProt P20813); experiment: in vitro; settings: hepatocytes, percentage inhibition, CYP2B6, OH-Bup, 1 mmol/L ABT, Lab 2
T2 sequence (P20813 1-491): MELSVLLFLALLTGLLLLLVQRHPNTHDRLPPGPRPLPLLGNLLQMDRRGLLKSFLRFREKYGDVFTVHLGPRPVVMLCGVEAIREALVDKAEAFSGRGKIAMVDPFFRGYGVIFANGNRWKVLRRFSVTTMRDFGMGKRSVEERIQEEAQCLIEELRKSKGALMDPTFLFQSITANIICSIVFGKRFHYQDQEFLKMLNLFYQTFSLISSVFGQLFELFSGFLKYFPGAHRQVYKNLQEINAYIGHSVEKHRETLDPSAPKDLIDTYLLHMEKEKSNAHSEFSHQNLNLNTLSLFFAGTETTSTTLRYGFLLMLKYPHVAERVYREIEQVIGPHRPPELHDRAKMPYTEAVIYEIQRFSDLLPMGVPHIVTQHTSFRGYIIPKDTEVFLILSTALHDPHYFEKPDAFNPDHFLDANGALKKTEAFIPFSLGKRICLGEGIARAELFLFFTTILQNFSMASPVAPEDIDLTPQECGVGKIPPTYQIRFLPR

CYP3A4 [7] = molecular target: CYP3A4 (Homo sapiens, UniProt P08684); experiment: in vitro; settings: upcyte hepatocytes, probe midazolam (5 μmol/L), percentage inhibition, CYP3A4, 1′OH-MID +1′OH-MID-G, 1 mmol/L ABT, Lab 2
Chain of CYP3A4 (Homo sapiens, UniProt P08684) (P08684 whole entry): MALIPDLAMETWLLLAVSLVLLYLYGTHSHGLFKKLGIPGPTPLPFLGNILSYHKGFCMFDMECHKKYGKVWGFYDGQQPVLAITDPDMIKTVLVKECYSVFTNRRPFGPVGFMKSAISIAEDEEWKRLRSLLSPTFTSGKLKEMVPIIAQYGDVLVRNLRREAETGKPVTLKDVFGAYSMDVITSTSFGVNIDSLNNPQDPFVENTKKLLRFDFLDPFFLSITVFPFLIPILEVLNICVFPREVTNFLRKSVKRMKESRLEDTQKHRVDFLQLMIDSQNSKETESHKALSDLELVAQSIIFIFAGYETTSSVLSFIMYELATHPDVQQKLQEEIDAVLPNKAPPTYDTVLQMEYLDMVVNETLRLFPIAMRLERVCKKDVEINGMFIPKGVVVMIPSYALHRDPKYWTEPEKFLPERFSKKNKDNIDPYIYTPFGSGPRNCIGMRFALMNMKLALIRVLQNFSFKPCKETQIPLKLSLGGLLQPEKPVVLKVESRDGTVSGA

CYP2C9 = CYP2C9 (Homo sapiens, UniProt P11712); experiment: CYP2C9 inhibition in upcyte hepatocytes over 24 h; assay type: in vitro ADME; settings: probe tolbutamide (5 μmol/L), percentage inhibition, CYP2C9, OH-Tolb, 1 mmol/L ABT, Lab 2
Chain of CYP2C9 (P11712 whole entry): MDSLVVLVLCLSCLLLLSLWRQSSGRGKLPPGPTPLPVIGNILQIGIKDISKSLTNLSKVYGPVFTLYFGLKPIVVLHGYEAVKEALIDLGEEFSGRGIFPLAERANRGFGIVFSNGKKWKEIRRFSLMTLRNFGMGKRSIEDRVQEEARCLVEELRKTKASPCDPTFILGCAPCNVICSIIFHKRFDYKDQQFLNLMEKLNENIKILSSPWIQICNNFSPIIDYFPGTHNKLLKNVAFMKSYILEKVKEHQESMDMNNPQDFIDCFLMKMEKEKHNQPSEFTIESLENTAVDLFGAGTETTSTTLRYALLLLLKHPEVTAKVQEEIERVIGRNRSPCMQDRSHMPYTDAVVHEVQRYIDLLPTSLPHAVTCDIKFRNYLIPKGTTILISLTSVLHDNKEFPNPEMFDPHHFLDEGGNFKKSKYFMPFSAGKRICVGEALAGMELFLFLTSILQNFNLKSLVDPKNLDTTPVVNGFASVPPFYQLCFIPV

## COc1ccc2[nH]c([S+]([O-])Cc3ncc(C)c(OC)c3C)nc2c1 (stereo not shown) [Omeprazole, omeprazole]
CYP2B6 [1]; upcyte Donor 10-03
  CYP2B6 Indmax: 2.0 fold
  CYP2B6 % PB: 31%
CYP2B6 [1]; upcyte Donor 151-03
  CYP2B6 Indmax: No induction
  CYP2B6 % PB: No induction
CYP2B6 [1]; upcyte Donor 653-03
  CYP2B6 Indmax: 2.2 fold
  CYP2B6 % PB: 56%
CYP1A2 [2]; Donor 10-03
  induced CYP1A2 activity: 57.1 ± 17.1 pmol/min/mg protein
CYP1A2 [2]; Donor 151-03
  induced CYP1A2 activity: 83.8 ± 21.7 pmol/min/mg protein
CYP1A2 [2]; Donor 422A-03
  induced CYP1A2 activity: 205.0 ± 44.9 pmol/min/mg protein
CYP3A4 [3]; upcyte Donor 10-03
  CYP3A4 Indmax: 2.3 fold
  CYP3A4 % Rif: 4%
CYP3A4 [3]; upcyte Donor 151-03
  CYP3A4 Indmax: 3.1 fold
  CYP3A4 % Rif: 34%
CYP3A4 [3]; upcyte Donor 653-03, column headed Ind50 in Table 5
  CYP3A4 Ind50: 5
CYP3A4 [3]; upcyte Donor 653-03
  CYP3A4 Indmax: 1.5 fold
CYP3A4 [4]
  % Decrease in midazolam AUC: 0%

## Nn1nnc2ccccc21 [ABT, 1-aminobenzotriazole]
CYP1A2 [5]; Donor 151-03, 0–6 h
  inhibition at 1 mmol/L: 100%
CYP1A2 [5]; Donor 151-03, 24 h
  inhibition at 24 h, 1 mmol/L: 100%
CYP1A2 [5]; Donor 422A-03, 0–6 h
  inhibition at 1 mmol/L: 100%
CYP1A2 [5]; Donor 422A-03, 24 h
  inhibition at 24 h, 1 mmol/L: 98%
CYP1A2 [5]; Donor 653-03, 0–6 h
  inhibition at 1 mmol/L: 95%
CYP1A2 [5]; Donor 653-03, 24 h
  inhibition at 24 h, 1 mmol/L: 96%
CYP2B6 [6]; Donor 151-03, 0–6 h
  inhibition at 1 mmol/L: 85%
CYP2B6 [6]; Donor 151-03, 24 h
  inhibition at 24 h, 1 mmol/L: 94%
CYP2B6 [6]; Donor 422A-03, 0–6 h
  inhibition at 1 mmol/L: 90%
CYP2B6 [6]; Donor 422A-03, 24 h
  inhibition at 24 h, 1 mmol/L: 94%
CYP2B6 [6]; Donor 653-03, 0–6 h
  inhibition at 1 mmol/L: 94%
CYP2B6 [6]; Donor 653-03, 24 h
  inhibition at 24 h, 1 mmol/L: 97%
CYP3A4 [7]; Donor 151-03, 0–6 h
  inhibition at 1 mmol/L: 99%
CYP3A4 [7]; Donor 151-03, 24 h
  inhibition at 24 h, 1 mmol/L: 97%
CYP3A4 [7]; Donor 422A-03, 0–6 h
  inhibition at 1 mmol/L: 98%
CYP3A4 [7]; Donor 422A-03, 24 h
  inhibition at 24 h, 1 mmol/L: 98%
CYP3A4 [7]; Donor 653-03, 0–6 h
  inhibition at 1 mmol/L: 98%
CYP3A4 [7]; Donor 653-03, 24 h
  inhibition at 24 h, 1 mmol/L: 98%
CYP2C9; Donor 151-03, 0–6 h
  inhibition at 1 mmol/L: 100%
CYP2C9; Donor 151-03, 24 h
  inhibition at 24 h, 1 mmol/L: 98%
CYP2C9; Donor 422A-03, 0–6 h
  inhibition at 1 mmol/L: 100%
CYP2C9; Donor 422A-03, 24 h
  inhibition at 24 h, 1 mmol/L: 100%
CYP2C9; Donor 653-03, 0–6 h
  inhibition at 1 mmol/L: 95%
CYP2C9; Donor 653-03, 24 h
  inhibition at 24 h, 1 mmol/L: 99%
